According to BindingDB's records for doi:10.1016/s0960-894x(00)00535-7 (Kyoto University, 2000):
Where a SMILES comes first, the peptide text is derived from it. Bridges are numbered along the chain shown (N, C = ends). [ ]: non-standard residue; d: D form. 2Nal = N[C@@H](Cc1ccc2ccccc2c1)C(=O)O; Cit = NC(=O)NCCC[C@H](N)C(=O)O

Test: Inhibition of HIV-induced cytopathogenicity in MT-4 cell

| EC50 | Compound |
| --- | --- |
| 2.5 µM | C[C@H](NC(=O)[C@H](CCCN=C(N)N)NC(=O)[C@@H](N)CCCN=C(N)N)C(=O)N[C@H]1CSSC[C@@H](C(=O)N[C@@H](CCCN=C(N)N)C(=O)O)NC(=O)[C@H](CCCNC(N)=O)NC(=O)[C@H](CCCN=C(N)N)NC(=O)[C@H](Cc2ccc(O)cc2)NC(=O)[C@@H]2CCCN2C(=O)[C@@H](CCCCN)NC(=O)[C@H](CCCCN)NC(=O)[C@H](CCCN=C(N)N)NC(=O)[C@H](Cc2ccc(O)cc2)NC1=O |
| 0.017 µM | C[C@@H]1NC(=O)[C@@H]2CCCN2C(=O)[C@@H](CCCCN)NC(=O)[C@H](CCCCN)NC(=O)[C@H](CCCN=C(N)N)NC(=O)[C@H](Cc2ccc(O)cc2)NC(=O)[C@@H](NC(=O)[C@H](Cc2ccc3ccccc3c2)NC(=O)[C@H](CCCN=C(N)N)NC(=O)[C@@H](N)CCCN=C(N)N)CSSC[C@@H](C(=O)N[C@@H](CCCN=C(N)N)C(=O)O)NC(=O)[C@H](CCCNC(N)=O)NC(=O)[C@H](CCCN=C(N)N)NC1=O |
| 0.45 µM | NCCCC[C@@H]1NC(=O)[C@H](CCCN=C(N)N)NC(=O)[C@H](Cc2ccc(O)cc2)NC(=O)[C@@H](NC(=O)[C@H](Cc2ccc3ccccc3c2)NC(=O)[C@H](CCCNC(N)=O)NC(=O)[C@@H](N)CCCN=C(N)N)CSSC[C@@H](C(=O)N[C@@H](CCCN=C(N)N)C(=O)O)NC(=O)[C@H](CCCNC(N)=O)NC(=O)[C@H](CCCN=C(N)N)NC(=O)[C@H](Cc2ccc(O)cc2)NC(=O)[C@@H]2CCCN2C(=O)[C@@H](CCCCN)NC1=O |
| 0.4 µM | C[C@H](NC(=O)[C@@H]1CSSC[C@H](NC(=O)[C@H](Cc2ccc3ccccc3c2)NC(=O)[C@H](CCCN=C(N)N)NC(=O)[C@@H](N)CCCN=C(N)N)C(=O)N[C@@H](Cc2ccc(O)cc2)C(=O)N[C@@H](CCCN=C(N)N)C(=O)N[C@@H](CCCCN)C(=O)N[C@H](CCCCN)C(=O)N2CCC[C@H]2C(=O)N[C@@H](Cc2ccc(O)cc2)C(=O)N[C@@H](CCCN=C(N)N)C(=O)N[C@@H](CCCNC(N)=O)C(=O)N1)C(=O)O |
| 0.016 µM | C[C@H]1NC(=O)[C@H](CCCCN)NC(=O)[C@H](CCCN=C(N)N)NC(=O)[C@H](Cc2ccc(O)cc2)NC(=O)[C@@H](NC(=O)[C@H](Cc2ccc3ccccc3c2)NC(=O)[C@H](CCCN=C(N)N)NC(=O)[C@@H](N)CCCN=C(N)N)CSSC[C@@H](C(=O)N[C@@H](CCCN=C(N)N)C(=O)O)NC(=O)[C@H](CCCNC(N)=O)NC(=O)[C@H](CCCN=C(N)N)NC(=O)[C@H](Cc2ccc(O)cc2)NC(=O)[C@@H]2CCCN2C1=O |
| 0.015 µM | NCCCC[C@@H]1NC(=O)[C@H](CCCN=C(N)N)NC(=O)[C@H](Cc2ccc(O)cc2)NC(=O)[C@@H](NC(=O)[C@H](Cc2ccc3ccccc3c2)NC(=O)[C@H](CCCN=C(N)N)NC(=O)[C@@H](N)CCCNC(N)=O)CSSC[C@@H](C(=O)N[C@@H](CCCN=C(N)N)C(=O)O)NC(=O)[C@H](CCCNC(N)=O)NC(=O)[C@H](CCCN=C(N)N)NC(=O)[C@H](Cc2ccc(O)cc2)NC(=O)[C@@H]2CCCN2C(=O)[C@@H](CCCCN)NC1=O |
| 0.0083 µM | NCCCC[C@@H]1NC(=O)[C@H](CCCN=C(N)N)NC(=O)[C@H](Cc2ccc(O)cc2)NC(=O)[C@@H](NC(=O)[C@H](Cc2c[nH]c3ccccc23)NC(=O)[C@H](CCCN=C(N)N)NC(=O)[C@@H](N)CCCN=C(N)N)CSSC[C@@H](C(=O)N[C@@H](CCCN=C(N)N)C(=O)O)NC(=O)[C@H](CCCNC(N)=O)NC(=O)[C@H](CCCN=C(N)N)NC(=O)[C@H](Cc2ccc(O)cc2)NC(=O)[C@@H]2CCCN2C(=O)[C@@H](CCCCN)NC1=O |
| 0.0028 µM | NCCCC[C@@H]1NC(=O)[C@H](CCCNC(N)=O)NC(=O)[C@H](Cc2ccc(O)cc2)NC(=O)[C@@H](NC(=O)[C@H](Cc2ccc3ccccc3c2)NC(=O)[C@H](CCCN=C(N)N)NC(=O)[C@@H](N)CCCN=C(N)N)CSSC[C@@H](C(=O)N[C@@H](CCCN=C(N)N)C(=O)O)NC(=O)[C@H](CCCNC(N)=O)NC(=O)[C@H](CCCN=C(N)N)NC(=O)[C@H](Cc2ccc(O)cc2)NC(=O)[C@@H]2CCCN2C(=O)[C@@H](CCCCN)NC1=O |
| 0.056 µM | CC(N)C(=O)N[C@@H](CCCN=C(N)N)C(=O)N[C@@H](Cc1ccc2ccccc2c1)C(=O)N[C@H]1CSSC[C@@H](C(=O)N[C@@H](CCCN=C(N)N)C(=O)O)NC(=O)[C@H](CCCNC(N)=O)NC(=O)[C@H](CCCN=C(N)N)NC(=O)[C@H](Cc2ccc(O)cc2)NC(=O)[C@@H]2CCCN2C(=O)[C@@H](CCCCN)NC(=O)[C@H](CCCCN)NC(=O)[C@H](CCCN=C(N)N)NC(=O)[C@H](Cc2ccc(O)cc2)NC1=O (stereo partly specified) |
| 0.016 µM | C[C@@H]1NC(=O)[C@H](CCCN=C(N)N)NC(=O)[C@H](Cc2ccc(O)cc2)NC(=O)[C@@H]2CCCN2C(=O)[C@@H](CCCCN)NC(=O)[C@H](CCCCN)NC(=O)[C@H](CCCN=C(N)N)NC(=O)[C@H](Cc2ccc(O)cc2)NC(=O)[C@@H](NC(=O)[C@H](Cc2ccc3ccccc3c2)NC(=O)[C@H](CCCN=C(N)N)NC(=O)[C@@H](N)CCCN=C(N)N)CSSC[C@@H](C(=O)N[C@@H](CCCN=C(N)N)C(=O)O)NC1=O |
| 0.016 µM | NCCCC[C@H]1NC(=O)[C@H](CCCNC(N)=O)NC(=O)[C@H](CCCN=C(N)N)NC(=O)[C@H](Cc2ccc(O)cc2)NC(=O)[C@@H](NC(=O)[C@H](Cc2ccc3ccccc3c2)NC(=O)[C@H](CCCN=C(N)N)NC(=O)[C@@H](N)CCCN=C(N)N)CSSC[C@@H](C(=O)N[C@@H](CCCN=C(N)N)C(=O)O)NC(=O)[C@H](CCCNC(N)=O)NC(=O)[C@H](CCCN=C(N)N)NC(=O)[C@H](Cc2ccc(O)cc2)NC(=O)[C@@H]2CCCN2C1=O |
| 0.047 µM | C[C@@H]1NC(=O)[C@H](CCCN=C(N)N)NC(=O)[C@H](Cc2ccc(O)cc2)NC(=O)[C@@H](NC(=O)[C@H](Cc2ccc3ccccc3c2)NC(=O)[C@H](CCCN=C(N)N)NC(=O)[C@@H](N)CCCN=C(N)N)CSSC[C@@H](C(=O)N[C@@H](CCCN=C(N)N)C(=O)O)NC(=O)[C@H](CCCNC(N)=O)NC(=O)[C@H](CCCN=C(N)N)NC(=O)[C@H](Cc2ccc(O)cc2)NC(=O)[C@@H]2CCCN2C(=O)[C@@H](CCCCN)NC1=O |
| 0.017 µM | C[C@@H]1NC(=O)[C@@H](CCCCN)NC(=O)[C@H](CCCCN)NC(=O)[C@H](CCCN=C(N)N)NC(=O)[C@H](Cc2ccc(O)cc2)NC(=O)[C@@H](NC(=O)[C@H](Cc2ccc3ccccc3c2)NC(=O)[C@H](CCCN=C(N)N)NC(=O)[C@@H](N)CCCN=C(N)N)CSSC[C@@H](C(=O)N[C@@H](CCCN=C(N)N)C(=O)O)NC(=O)[C@H](CCCNC(N)=O)NC(=O)[C@H](CCCN=C(N)N)NC(=O)[C@H](Cc2ccc(O)cc2)NC1=O (H-RR[2Nal]CYRK[dK]AYR[Cit]CR-OH; disulfide 4-13) |
| 0.0033 µM | NCCCC[C@@H]1NC(=O)[C@H](CCCN=C(N)N)NC(=O)[C@H](Cc2ccc(O)cc2)NC(=O)[C@@H](NC(=O)[C@H](Cc2ccc3ccccc3c2)NC(=O)[C@H](CCCN=C(N)N)NC(=O)[C@@H](N)CCCN=C(N)N)CSSC[C@@H](C(=O)N[C@@H](CCCN=C(N)N)C(=O)O)NC(=O)[C@H](CCCNC(N)=O)NC(=O)[C@H](CCCN=C(N)N)NC(=O)[C@H](Cc2ccc(O)cc2)NC(=O)[C@@H]2CCCN2C(=O)[C@@H](CCCCN)NC1=O (H-RR[2Nal]CYRK[dK]PYR[Cit]CR-OH; disulfide 4-13) |
| 1.3 µM | C[C@H](NC(=O)[C@@H](N)CCCN=C(N)N)C(=O)N[C@@H](Cc1ccc2ccccc2c1)C(=O)N[C@H]1CSSC[C@@H](C(=O)N[C@@H](CCCN=C(N)N)C(=O)O)NC(=O)[C@H](CCCNC(N)=O)NC(=O)[C@H](CCCN=C(N)N)NC(=O)[C@H](Cc2ccc(O)cc2)NC(=O)[C@@H]2CCCN2C(=O)[C@@H](CCCCN)NC(=O)[C@H](CCCCN)NC(=O)[C@H](CCCN=C(N)N)NC(=O)[C@H](Cc2ccc(O)cc2)NC1=O [TC-14001] |
| 0.0093 µM | C[C@@H]1NC(=O)[C@H](Cc2ccc(O)cc2)NC(=O)[C@@H](NC(=O)[C@H](Cc2ccc3ccccc3c2)NC(=O)[C@H](CCCN=C(N)N)NC(=O)[C@@H](N)CCCN=C(N)N)CSSC[C@@H](C(=O)N[C@@H](CCCN=C(N)N)C(=O)O)NC(=O)[C@H](CCCNC(N)=O)NC(=O)[C@H](CCCN=C(N)N)NC(=O)[C@H](Cc2ccc(O)cc2)NC(=O)[C@@H]2CCCN2C(=O)[C@@H](CCCCN)NC(=O)[C@H](CCCCN)NC1=O [TC-14002] |
| 0.015 µM | NCCCC[C@@H]1NC(=O)[C@H](CCCN=C(N)N)NC(=O)[C@H](Cc2ccc(O)cc2)NC(=O)[C@@H](NC(=O)[C@H](Cc2ccc3ccccc3c2)NC(=O)[C@H](CCCN=C(N)N)NC(=O)[C@@H](N)CCCN=C(N)N)CSSC[C@@H](C(=O)N[C@@H](CCCN=C(N)N)C(=O)O)NC(=O)[C@H](CCCNC(N)=O)NC(=O)[C@H](CCCNC(N)=O)NC(=O)[C@H](Cc2ccc(O)cc2)NC(=O)[C@@H]2CCCN2C(=O)[C@@H](CCCCN)NC1=O [TC-14003] |
| 0.004 µM | NCCCC[C@@H]1NC(=O)[C@H](CCCN=C(N)N)NC(=O)[C@H](Cc2ccc(O)cc2)NC(=O)[C@@H](NC(=O)[C@H](Cc2ccc3ccccc3c2)NC(=O)[C@H](CCCN=C(N)N)NC(=O)[C@@H](N)CCCN=C(N)N)CSSC[C@@H](C(=O)N[C@@H](CCCN=C(N)N)C(=O)O)NC(=O)[C@H](CCCNC(N)=O)NC(=O)[C@H](CCCN=C(N)N)NC(=O)[C@H](Cc2ccc(O)cc2)NC(=O)[C@@H]2CCCN2C(=O)[C@@H](CCCNC(N)=O)NC1=O [TC-14004] |
| 0.36 µM | C[C@@H]1NC(=O)[C@@H](NC(=O)[C@H](Cc2ccc3ccccc3c2)NC(=O)[C@H](CCCN=C(N)N)NC(=O)[C@@H](N)CCCN=C(N)N)CSSC[C@@H](C(=O)N[C@@H](CCCN=C(N)N)C(=O)O)NC(=O)[C@H](CCCNC(N)=O)NC(=O)[C@H](CCCN=C(N)N)NC(=O)[C@H](Cc2ccc(O)cc2)NC(=O)[C@@H]2CCCN2C(=O)[C@@H](CCCCN)NC(=O)[C@H](CCCCN)NC(=O)[C@H](CCCN=C(N)N)NC1=O [TC-14005] |
| 0.88 µM | NCCCC[C@@H]1NC(=O)[C@H](CCCN=C(N)N)NC(=O)[C@H](Cc2ccc(O)cc2)NC(=O)[C@@H](NC(=O)[C@H](Cc2ccc3ccccc3c2)NC(=O)[C@H](CCCN=C(N)N)NC(=O)[C@@H](N)CCCN=C(N)N)CSSC[C@@H](C(=O)N[C@@H](CCCNC(N)=O)C(=O)O)NC(=O)[C@H](CCCNC(N)=O)NC(=O)[C@H](CCCN=C(N)N)NC(=O)[C@H](Cc2ccc(O)cc2)NC(=O)[C@@H]2CCCN2C(=O)[C@@H](CCCCN)NC1=O [TC-14006] |
| 0.018 µM | C[C@@H]1NC(=O)[C@H](Cc2ccc(O)cc2)NC(=O)[C@@H]2CCCN2C(=O)[C@@H](CCCCN)NC(=O)[C@H](CCCCN)NC(=O)[C@H](CCCN=C(N)N)NC(=O)[C@H](Cc2ccc(O)cc2)NC(=O)[C@@H](NC(=O)[C@H](Cc2ccc3ccccc3c2)NC(=O)[C@H](CCCN=C(N)N)NC(=O)[C@@H](N)CCCN=C(N)N)CSSC[C@@H](C(=O)N[C@@H](CCCN=C(N)N)C(=O)O)NC(=O)[C@H](CCCNC(N)=O)NC1=O [TC-14007] |
